From US6479651B1, “Modified oligonucleotides, their preparation and their use” (Aventis Pharma Deutschland GmbH, priority 1994, dated 2002) come the findings set out here.

The structures appear in SMILES notation.

As a reminder, the melting point is the temperature of the solid-liquid transition. On to `Cc1cn([C@H]2C[C@H](O)[C@@H](CO)O2)c2ncnc(NC(=O)c3ccccc3)c12` [Compound 6, 4-Benzoylamino-7-(2-deoxy-β-D-erythropentofuranosyl)-5-methyl-7H-pyrrolo[2,3-d]pyrimidine], for which the melting point came to 196 °C.

Consider `O=C(Nc1ncnc2c1c(Br)cn2[C@H]1C[C@H](O)[C@@H](CO)O1)c1ccccc1` [Compound 5, 4-Benzoylamino-5-bromo-7-(2-deoxy-β-D-erythropentofuranosyl)-7H-pyrrolo[2,3-d]pyrimidine], for which the melting point amounted to 198 °C. Under `COc1nc(NC=O)nc2c1c(Cl)c(Cl)n2[C@H]1C[C@H](OC(=O)C(C)C)[C@@H](COC(=O)C(C)C)O1` [Compound 49, 7-[2-Deoxy-3,5-di-O-(2-methylpropionyl)-β-D-erythropentofuranosyl]-5,6-dichloro-2-[(formyl)amino]-4-methoxy-7H-pyrrolo[2,3-d]pyrimidine] stands 127 to 128 °C; under `Nc1nc2c(c(I)cn2[C@H]2C[C@H](O)[C@@H](CO)O2)c(=O)[nH]1` [Compound 58, 2-Amino-7-(2-deoxy-β-D-erythropentofuranosyl)-5-iodo-3,7-dihydro-4H-pyrrolo[2,3-d]pyrimidin-4-one], 218 to 220 °C; under `Nc1ncnc2c1c(I)cn2[C@H]1C[C@H](O)[C@@H](CO)O1` [Compound 14, 4-Amino-7-(2-deoxy-β-D-erythropentofuranosyl)-5-iodo-7H-pyrrolo [2,3-d]pyrimidine], 194 °C. As to `O=C(Nc1ncnc2c1c(Cl)cn2[C@H]1C[C@H](O)[C@@H](CO)O1)c1ccccc1` [Compound 4, 4-Benzoylamino-5-chloro-7-(2-deoxy-β-D-erythropentofuranosyl)-7H-pyrrolo[2,3-d]pyrimidine], the melting point worked out at 190 °C.
